Test results reported in ChEMBL document CHEMBL1177776, “Novel coumarin derivatives as potential antidyslipidemic agents” (2010).

Columns and labels:
Format in all cases: functional
Rattus norvegicus [1] = assay: Antidyslipidemic activity against triton-induced hyperlipidemia in Charles Foster rat assessed as reduction in phospholipid level at 100 mg/kg, po after 18 hrs by spectrophotometry relative to control; set-up: scale not given: the % may be the effect or the level left
Rattus norvegicus [2] = assay: Antidyslipidemic activity against triton-induced hyperlipidemia in Charles Foster rat assessed as reduction in total cholesterol level at 100 mg/kg, po after 18 hrs by spectrophotometry relative to control; set-up: scale not given: the % may be the effect or the level left
Rattus norvegicus [3] = assay: Antidyslipidemic activity against triton-induced hyperlipidemia in Charles Foster rat assessed as reduction in triglyceride level at 100 mg/kg, po after 18 hrs by spectrophotometry relative to control; set-up: scale not given: the % may be the effect or the level left
[4] = Antioxidant activity assessed as inhibition lipid peroxidation at 200 ug/ml by spectrophotometry
[5] = Antioxidant activity assessed as inhibition non-enzymatic reactants generated hydroxyl radical production at 200 ug/ml by spectrophotometry
[6] = Antioxidant activity assessed as inhibition non-enzymatic reactants generated superoxide anion at 200 ug/ml by spectrophotometry
[7] = Antioxidant activity assessed as inhibition non-enzymatic reactants generated hydroxyl radical production at 100 ug/ml by spectrophotometry
[8] = Antioxidant activity assessed as inhibition non-enzymatic reactants generated superoxide anion at 20 ug/ml by spectrophotometry

`Cc1ccc(C)c(OCCCC(C)(C)C(=O)O)c1` [GEMFIBROZIL] gave an Activity (Rattus norvegicus [1]) of 38%, an Activity (Rattus norvegicus [2]) of 34% and an Activity (Rattus norvegicus [3]) of 35%.

Work on `Cc1cc(C=O)c(O)c2ccccc12` yielded an Activity (Rattus norvegicus [1]) of 25%, an inhibition [4] of 41% and an inhibition [5] of 41%. For the same compound, the Activity (Rattus norvegicus [2]) was 24%, the Activity (Rattus norvegicus [3]) was 23% and the inhibition [6] was 27%.

Work on `OC[C@@H](O)[C@@H](O)[C@H](O)[C@H](O)CO` yielded an inhibition [7] of 52%.

Work on `Oc1ncnc2[nH]ncc12` yielded an inhibition [8] of 80%.

`Cc1c(C)c2c(c(C)c1O)CC[C@@](C)(CCC[C@H](C)CCC[C@H](C)CCCC(C)C)O2` gave an inhibition [7] of 47%.

In the case of `Cc1cc2cc(Cl)c(=O)oc2c2ccccc12`, the Activity (Rattus norvegicus [1]) was 26%, the inhibition [4] was 38% and the inhibition [5] was 49%. The Activity (Rattus norvegicus [2]) was 27%, the Activity (Rattus norvegicus [3]) was 26% and the inhibition [6] was 32%.
